Consider 25 compounds from patent US9193736B2, “PDE 10a inhibitors for the treatment of type II diabetes” (Janssen Pharmaceutica, NV, priority 2013, dated 2015).

In assay [1] the target is Rat recombinant PDE10a (rPDE10a) (Rattus norvegicus (Rat), UniProt Q9QYJ6). Kind of assay: In vitro assay PDE10a: rat recombinant PDE10a SPA with 3H-cAMP substrate, IC50. Format: biochemical. The note with it: 60 nM cAMP, read-out: rPDE10a2 IC50. The protocol:
In Vitro Assay PDE10a Rat recombinant PDE10a (rPDE10a) was expressed in Sf9 cells using a recombinant rPDE10a baculovirus construct. Cells were harvested after 48 h of infection and the rPDE10a protein was purified by metal chelate chromatography on Ni-sepharose 6FF. Tested compounds were dissolved and diluted in 100% DMSO to a concentration 100 fold of the final concentration in the assay. […] The reaction was incubated for 60 min at rt. After incubation, the reaction was stopped with 20 μL of 17.8 mg/mL PDE SPA beads. […] For blank values the enzyme was omitted from the reaction and replaced by incubation buffer.

Assay [2] concerns the target Human recombinant PDE10A2 (Homo sapiens (Human), UniProt Q9Y233). Kind of assay: In vitro hPDE10a: human recombinant PDE10A2 scintillation proximity assay, IC50. Format: biochemical. The note with it: human recombinant PDE10A2, SPA, 60 nM cAMP; read-out: hPDE10a2 IC50. The protocol: Cells were harvested and the phosphodiesterase protein was purified by metal chelate chromatography on Ni-sepharose 6FF. The affinity of the compounds of Formula (I) for phophodiesterases (PDE) was measured by a scintillation proximity assay (SPA). PDE Yttrium Silicate SPA beads allow PDE activity to be measured by direct binding of the primary phosphate groups of non-cyclic AMP or GMP to the beads via a complex iron chelation mechanism. The amount of bound tritiated product ([^3H]-AMP) is measured by liquid scintillation counting. The compounds were dissolved and diluted in 100% DMSO in polystyrene plates to a concentration of 100-fold the final concentration in the assay. […] After incubation, the reaction was stopped with 20 μL of stop solution, consisting of PDE SPA beads (17.8 mg beads/mL in 18 mM zinc sulphate). […] To measure the low control, no enzyme was added to the reaction mixture. Data were calculated as the percentage of inhibition of total activity measured in the absence of test compound (% control). […] For compounds tested more than once, the data points were aggregated.

The structures appear in SMILES notation. Structures can show the parent of a compound that is named as a salt.

Sequence of Rat recombinant PDE10a (rPDE10a) (Q9QYJ6 whole entry): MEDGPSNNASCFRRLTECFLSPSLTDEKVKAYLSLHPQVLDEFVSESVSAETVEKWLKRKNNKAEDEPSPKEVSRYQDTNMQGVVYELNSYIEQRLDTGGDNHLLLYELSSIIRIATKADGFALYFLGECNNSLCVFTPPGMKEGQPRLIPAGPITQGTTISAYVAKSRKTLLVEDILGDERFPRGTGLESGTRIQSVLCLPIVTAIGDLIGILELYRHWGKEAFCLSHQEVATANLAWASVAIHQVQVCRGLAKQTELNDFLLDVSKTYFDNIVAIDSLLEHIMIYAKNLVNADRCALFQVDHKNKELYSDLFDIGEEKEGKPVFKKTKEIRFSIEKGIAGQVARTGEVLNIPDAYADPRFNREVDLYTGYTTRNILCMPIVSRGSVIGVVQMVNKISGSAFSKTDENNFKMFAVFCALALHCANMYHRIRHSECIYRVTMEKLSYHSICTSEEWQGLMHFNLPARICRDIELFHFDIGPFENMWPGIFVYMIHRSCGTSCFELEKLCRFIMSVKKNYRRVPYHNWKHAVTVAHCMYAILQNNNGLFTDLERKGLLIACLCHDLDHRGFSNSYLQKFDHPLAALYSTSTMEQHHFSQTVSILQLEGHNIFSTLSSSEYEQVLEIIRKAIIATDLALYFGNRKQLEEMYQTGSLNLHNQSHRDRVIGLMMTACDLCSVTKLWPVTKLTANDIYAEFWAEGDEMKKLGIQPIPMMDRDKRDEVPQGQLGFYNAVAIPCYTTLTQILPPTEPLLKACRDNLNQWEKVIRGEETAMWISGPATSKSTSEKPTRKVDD
Sequence of Human recombinant PDE10A2 (Q9Y233 267-1055): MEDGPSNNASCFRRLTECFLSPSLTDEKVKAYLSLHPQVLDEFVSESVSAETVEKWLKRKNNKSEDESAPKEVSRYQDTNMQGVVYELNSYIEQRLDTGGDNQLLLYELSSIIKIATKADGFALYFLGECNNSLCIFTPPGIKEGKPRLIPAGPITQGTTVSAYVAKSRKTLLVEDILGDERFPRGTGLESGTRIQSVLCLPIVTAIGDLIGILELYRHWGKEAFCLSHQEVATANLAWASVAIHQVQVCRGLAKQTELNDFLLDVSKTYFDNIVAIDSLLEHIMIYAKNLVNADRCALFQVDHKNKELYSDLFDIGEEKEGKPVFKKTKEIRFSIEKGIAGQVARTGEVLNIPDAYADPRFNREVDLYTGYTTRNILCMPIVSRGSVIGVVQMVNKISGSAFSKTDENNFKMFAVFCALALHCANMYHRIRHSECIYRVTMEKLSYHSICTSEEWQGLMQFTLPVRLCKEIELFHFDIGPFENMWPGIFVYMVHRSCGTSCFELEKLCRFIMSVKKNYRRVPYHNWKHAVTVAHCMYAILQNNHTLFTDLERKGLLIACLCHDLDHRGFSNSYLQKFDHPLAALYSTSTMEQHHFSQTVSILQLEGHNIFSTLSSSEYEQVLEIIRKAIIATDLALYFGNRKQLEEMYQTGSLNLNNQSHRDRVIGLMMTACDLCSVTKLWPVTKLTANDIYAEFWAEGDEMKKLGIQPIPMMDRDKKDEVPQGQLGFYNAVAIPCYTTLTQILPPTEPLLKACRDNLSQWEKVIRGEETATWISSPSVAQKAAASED

For the compound `O=c1[nH]nnn1-c1ccc(-c2c(CCc3ccc4ccccc4n3)nc3c(N4CCOCC4)ccnn23)cc1` [Cpd 62, 1-(4-(8-Morpholino-2-(2-(quinolin-2-yl)ethyl)imidazo[1,2-b]pyridazin-3-yl)phenyl)-1H-tetrazol-5(4H)-one], the IC50 turned out to be 9 nM in assay [1] and 4 nM in assay [2].

Consider `CS(=O)(=O)NC(=O)c1cccc2nc(/C=C/c3nc4c(N5CCOCC5)ccnn4c3-c3ccccc3)ccc12` [Cpd 122, (E)-N-(Methylsulfonyl)-2-(2-(8-morpholino-3-phenylimidazo[1,2-b]pyridazin-2-yl)vinyl)quinoline-5-carboxamide], for which the results for the IC50 in assay [1] and in assay [2] were 7 nM and 4 nM, respectively.

As to `COc1cc(/C=C/c2nc3c(N4CCOCC4)ccnn3c2-c2ccc(C(=O)O)cc2)nc2ccccc12` [Cpd 135, 4-{2-[(E)-2-(4-Methoxyquinolin-2-yl)ethenyl]-8-morpholin-4-ylimidazo[1,2-b]pyridazin-3-yl}benzoic acid], the IC50 worked out at 10 nM in assay [1] and 6 nM in assay [2].

For `O=C(O)c1ccc(-c2c(C#Cc3ccc4ccccc4n3)nc3c(N4CCOCC4)ccnn23)s1` [Cpd 85, 5-(8-Morpholino-2-(quinolin-2-ylethynyl)imidazo[1,2-b]pyridazin-3-yl)thiophene-2-carboxylic acid], the IC50 in assay [1] and in assay [2] was below 1 nM each time.

Consider `O=C(O)c1ccc(-c2c(/C=C/c3ccc4ccccc4n3)nc3c(N4CCOCC4)ccnn23)nc1` [compound 113, (E)-6-(8-Morpholino-2-(2-(quinolin-2-yl)vinyl)imidazo[1,2-b]pyridazin-3-yl)nicotinic acid], for which the IC50 in assay [1] and in assay [2] was 2 nM in each case.

As for `O=C(O)c1ccc(-c2c(C#Cc3nc4ccccc4s3)nc3c(N4CCOCC4)ccnn23)cc1` [Cpd 87, 4-(2-(Benzo[d]thiazol-2-ylethynyl)-8-morpholinoimidazo[1,2-b]pyridazin-3-yl)benzoic acid], the IC50 in assay [1] and in assay [2] was 1 nM throughout.

`N#Cc1ccc(C#Cc2nc3c(N4CCOCC4)ccnn3c2-c2ccc(C(=O)O)cc2)nc1` [Cpd 96, 4-(2-((5-Cyanopyridin-2-yl)ethynyl)-8-morpholinoimidazo[1,2-b]pyridazin-3-yl)benzoic acid]: the IC50 in assay [1] amounted to 31 nM; in assay [2] it was 22 nM.

On to `O=C(O)c1ccc(-c2c(/C=C/c3nc4ccccc4s3)nc3c(N4CCOCC4)ccnn23)cc1` [Cpd 90, (E)-4-(2-(2-(Benzo[d]thiazol-2-yl)vinyl)-8-morpholinoimidazo[1,2-b]pyridazin-3-yl)benzoic acid], for which the half-maximal inhibitory concentration (IC50) stood at 17 nM in assay [1] and 19 nM in assay [2].

Regarding `CS(=O)(=O)NC(=O)CCc1ccc(-c2c(/C=C/c3ccc4ccccc4n3)nc3c(N4CCOCC4)ccnn23)cc1` [Cpd 132, (E)-N-(Methylsulfonyl)-3-(4-(8-morpholino-2-(2-(quinolin-2-yl)vinyl)imidazo[1,2-b]pyridazin-3-yl)phenyl)propanamide trifluoroacetic acid salt], the 50% inhibitory concentration (IC50) is 15 nM in assay [1] and 11 nM in assay [2].

For the compound `Oc1c(F)cc(-c2c(/C=C/c3ccc4ccccc4n3)nc3c(N4CCOCC4)ccnn23)cc1F` [compound 80, (E)-2,6-Difluoro-4-(8-morpholino-2-(2-(quinolin-2-yl)vinyl)imidazo[1,2-b]pyridazin-3-yl)phenol], the figures for the half-maximal inhibitory concentration (IC50) in assay [1] and in assay [2] were 2 nM and below 1 nM, respectively.

With `COc1cc(C(=O)O)ccc1-c1c(/C=C/c2ccc3ccccc3n2)nc2c(N3CCOCC3)ccnn12` [compound 98, (E)-3-Methoxy-4-(8-morpholino-2-(2-(quinolin-2-yl)vinyl)imidazo[1,2-b]pyridazin-3-yl)benzoic acid], the concentration for half-maximal inhibition (IC50) in assay [1] and in assay [2] was 3 nM throughout.

Take `O=C(O)c1ccc(Nc2c(/C=C/c3ccc4ccccc4n3)nc3c(N4CCOCC4)ccnn23)cc1` [Cpd 138, (E)-4-((8-Morpholino-2-(2-(quinolin-2-yl)vinyl)imidazo[1,2-b]pyridazin-3-yl)amino)benzoic acid]: the 50% inhibitory concentration (IC50) in assay [1] was 2 nM; in assay [2], 5 nM.

Regarding `O=C(O)CC1CCN(c2c(/C=C/c3ccc4ccccc4n3)nc3c(N4CCOCC4)ccnn23)CC1` [Cpd 156, (E)-2-(1-(8-Morpholino-2-(2-(quinolin-2-yl)vinyl)imidazo[1,2-b]pyridazin-3-yl)piperidin-4-yl)acetic acid], the IC50 in assay [1] and in assay [2] was 7 nM each time.

For the compound `C(=C\c1nc2c(N3CCOCC3)ccnn2c1N1CCCCC1)/c1ccc2ccccc2n1` [compound 154, (E)-4-(3-(Piperidin-1-yl)-2-(2-(quinolin-2-yl)vinyl)imidazo[1,2-b]pyridazin-8-yl)morpholine], the results for the IC50 in assay [1] and in assay [2] were 28 nM and 72 nM, respectively.

`O=C(O)[C@@H]1CCCN1C(=O)c1ccc(-c2c(/C=C/c3ccc4ccccc4n3)nc3c(N4CCOCC4)ccnn23)cc1` [Cpd 71, (S,E)-1-(4-(8-Morpholino-2-(2-(quinolin-2-yl)vinyl)imidazo[1,2-b]pyridazin-3-yl)benzoyl)pyrrolidine-2-carboxylic acid trifluoroacetic acid salt]: the IC50 in assay [1] was 8 nM; in assay [2] it was 6 nM.

Turning to `O=C(O)CNC(=O)c1ccc(-c2c(CCc3ccc4ccccc4n3)nc3c(N4CCOCC4)ccnn23)cc1` [Cpd 68, 2-(4-(8-Morpholino-2-(2-(quinolin-2-yl)ethyl)imidazo[1,2-b]pyridazin-3-yl)benzamido)acetic acid trifluoroacetic acid salt], the concentration for half-maximal inhibition (IC50) in assay [1] is 6 nM; in assay [2], 5 nM.

Consider `C(=C\c1nc2c(N3CCOCC3)ccnn2c1-c1ccc(-c2nnn[nH]2)cc1)/c1ccc2ccccc2n1` [compound 176, (E)-4-(3-(4-(1H-Tetrazol-5-yl)phenyl)-2-(2-(quinolin-2-yl)vinyl)imidazo[1,2-b]pyridazin-8-yl)morpholine], for which the IC50 in assay [1] and in assay [2] was 6 nM each time.

For `O=C(O)c1cccc2nc(/C=C/c3cn4nccc(N5CCOCC5)c4n3)ccc12` [Cpd 115, 2-[(E)-2-(8-Morpholin-4-ylimidazo[1,2-b]pyridazin-2-yl)ethenyl]quinoline-5-carboxylic acid], the half-maximal inhibitory concentration (IC50) in assay [1] and in assay [2] was 1 nM throughout.

`O=C(O)c1ccc(-c2c([C@@H]3C[C@@H]3c3ccc4ccccc4n3)nc3c(N4CCOCC4)cc(Cl)nn23)cc1` [Cpd 147, 4-(6-Chloro-8-morpholino-2-((1R,2S)-2-(quinolin-2-yl)cyclopropyl)imidazo[1,2-b]pyridazin-3-yl)benzoic acid trifluoroacetic acid salt]: the IC50 was found to be 4 nM in assay [1] and 7 nM in assay [2].

As to `C(=C\c1nc2c(N3CCOCC3)ccnn2c1-c1cccc(-c2nnn[nH]2)c1)/c1ccc2ccccc2n1` [Cpd 105, (E)-4-(3-(3-(1H-Tetrazol-5-yl)phenyl)-2-(2-(quinolin-2-yl)vinyl)imidazo[1,2-b]pyridazin-8-yl)morpholine trifluoroacetic acid salt], the results for the IC50 in assay [1] and in assay [2] were 5 nM and 4 nM, respectively.

In the case of `O=C(O)CCNC(=O)c1ccc(-c2c(C#Cc3ccc4ccccc4n3)nc3c(N4CCOCC4)ccnn23)cc1` [compound 82, 3-(4-(8-Morpholino-2-(quinolin-2-ylethynyl)imidazo[1,2-b]pyridazin-3-yl)benzamido)propanoic acid], the values for the IC50 in assay [1] and in assay [2] were 2 nM and below 1 nM, respectively.

For the compound `CC(C)[C@H](NC(=O)c1ccc(-c2c(C#Cc3ccc4ccccc4n3)nc3c(N4CCOCC4)ccnn23)cc1)C(=O)O` [Cpd 101, (S)-3-Methyl-2-(4-(8-morpholino-2-(quinolin-2-ylethynyl)imidazo[1,2-b]pyridazin-3-yl)benzamido)butanoic acid trifluoroacetic acid salt], the figures for the IC50 in assay [1] and in assay [2] were 5 nM and 4 nM, respectively.

Take `CS(=O)(=O)NC(=O)C1CCN(c2c(/C=C/c3ccc4ccccc4n3)nc3c(N4CCOCC4)ccnn23)CC1` [compound 153, (E)-N-(Methylsulfonyl)-1-(8-morpholino-2-(2-(quinolin-2-yl)vinyl)imidazo[1,2-b]pyridazin-3-yl)piperidine-4-carboxamide]: the IC50 came to 4 nM in assay [1] and 3 nM in assay [2].

As to `O=S(=O)(Cc1nc2c(N3CCOCC3)ccnn2c1-c1ccc(N2CCNCC2)nc1)c1ccc2ccccc2n1` [Cpd 9, 4-(3-(6-(piperazin-1-yl)pyridin-3-yl)-2-((quinolin-2-ylsulfonyl)methyl)imidazo[1,2-b]pyridazin-8-yl)morpholine trifluoroacetic acid salt], the IC50 is 132 nM in assay [1] and 427 nM in assay [2].

On to `O=C(O)CCNC(=O)c1ccc(-c2c(CCc3ccc4ccccc4n3)nc3c(N4CCOCC4)ccnn23)cc1` [compound 46, 3-(4-(8-Morpholino-2-(2-(quinolin-2-yl)ethyl)imidazo[1,2-b]pyridazin-3-yl)benzamido)propanoic acid], for which the values for the IC50 in assay [1] and in assay [2] were 1 nM and 3 nM, respectively.
